According to paper PMC2690642 (Journal of neurochemistry, 2008):

Columns and labels:
[1] = target: T1, NR2B-R (regulatory domain of NMDA receptor NR2B subunit) (Rattus norvegicus, UniProt Q00960); test: [14C]spermine filter binding to purified NR2B-R; settings: for [14C]Spermine bound to NR2B-R in presence of addition, %: 40 µM [14C]spermine, % of binding with no addition; for Effect of aminoglycoside on spermine binding to NR2B-R: 20 µM [14C]spermine, aminoglycosides 75 to 300 µM (Fig. 10)
[2] = target: T1, NR2B-R (regulatory domain of NMDA receptor NR2B subunit); test: [3H]ifenprodil filter binding to purified NR2B-R; settings: for [3H]Ifenprodil bound to NR2B-R in presence of addition, %: 0.4 µM [3H]ifenprodil, % of binding with no addition
[3] = target: T2, NR1-R (regulatory domain of NMDA receptor NR1 subunit) (Rattus norvegicus, UniProt P35439); test: [3H]ifenprodil filter binding to purified NR1-R
[4] = target: T3, NR2A-R (regulatory domain of NMDA receptor NR2A subunit) (Rattus norvegicus, UniProt Q00959); test: [3H]ifenprodil filter binding to purified NR2A-R; settings: 0.1 to 0.8 µM [3H]ifenprodil
T3 sequence (Q00959 23-389): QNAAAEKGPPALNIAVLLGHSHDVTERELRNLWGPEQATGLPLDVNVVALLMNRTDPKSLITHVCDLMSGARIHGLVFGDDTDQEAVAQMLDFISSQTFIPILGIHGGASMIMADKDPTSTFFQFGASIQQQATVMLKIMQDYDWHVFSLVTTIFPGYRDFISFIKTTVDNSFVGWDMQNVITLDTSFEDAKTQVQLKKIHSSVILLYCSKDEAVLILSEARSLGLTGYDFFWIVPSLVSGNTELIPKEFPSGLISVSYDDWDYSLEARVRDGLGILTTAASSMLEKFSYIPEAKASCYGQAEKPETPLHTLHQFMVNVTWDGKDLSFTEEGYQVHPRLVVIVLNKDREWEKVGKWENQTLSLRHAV

NR1/NR2B receptors [5] = settings: read-out: IC50 for ifenprodil inhibition at intact, functional NR1/NR2B receptors; pH 7.6; ref Williams 1993; cited from earlier work
NR2A-R = NR2A-R (Rattus norvegicus, UniProt Q00959); test: Circular dichroism; format: binding
Sequence of NR2A-R (Q00959 23-389): as above

[6] = target: T3, NR2A-R (regulatory domain of NMDA receptor NR2A subunit); test: [14C]spermine filter binding to purified NR2A-R; settings: for Effect of aminoglycoside on spermine binding to NR2A-R: 20 µM [14C]spermine, aminoglycosides 75 to 300 µM (Fig. 10)
[7] = target: T2, NR1-R (regulatory domain of NMDA receptor NR1 subunit); test: [14C]spermine filter binding to purified NR1-R; settings: for Effect of aminoglycoside on spermine binding to NR1-R: 20 µM [14C]spermine, aminoglycosides 75 to 300 µM (Fig. 10)
NR1-R = NR1-R (Rattus norvegicus, UniProt P35439); test: Circular dichroism; format: binding
NR1/NR2B receptors [8] = target: NR1/NR2B receptors (Rattus norvegicus, UniProt P35439+Q00960); test: Voltage clamp recording in Xenopus oocytes expressing NR1/NR2B
Sequence of NR1/NR2B receptors (Rattus norvegicus, UniProt P35439+Q00960) (Q00960 27-1482, other chains not shown): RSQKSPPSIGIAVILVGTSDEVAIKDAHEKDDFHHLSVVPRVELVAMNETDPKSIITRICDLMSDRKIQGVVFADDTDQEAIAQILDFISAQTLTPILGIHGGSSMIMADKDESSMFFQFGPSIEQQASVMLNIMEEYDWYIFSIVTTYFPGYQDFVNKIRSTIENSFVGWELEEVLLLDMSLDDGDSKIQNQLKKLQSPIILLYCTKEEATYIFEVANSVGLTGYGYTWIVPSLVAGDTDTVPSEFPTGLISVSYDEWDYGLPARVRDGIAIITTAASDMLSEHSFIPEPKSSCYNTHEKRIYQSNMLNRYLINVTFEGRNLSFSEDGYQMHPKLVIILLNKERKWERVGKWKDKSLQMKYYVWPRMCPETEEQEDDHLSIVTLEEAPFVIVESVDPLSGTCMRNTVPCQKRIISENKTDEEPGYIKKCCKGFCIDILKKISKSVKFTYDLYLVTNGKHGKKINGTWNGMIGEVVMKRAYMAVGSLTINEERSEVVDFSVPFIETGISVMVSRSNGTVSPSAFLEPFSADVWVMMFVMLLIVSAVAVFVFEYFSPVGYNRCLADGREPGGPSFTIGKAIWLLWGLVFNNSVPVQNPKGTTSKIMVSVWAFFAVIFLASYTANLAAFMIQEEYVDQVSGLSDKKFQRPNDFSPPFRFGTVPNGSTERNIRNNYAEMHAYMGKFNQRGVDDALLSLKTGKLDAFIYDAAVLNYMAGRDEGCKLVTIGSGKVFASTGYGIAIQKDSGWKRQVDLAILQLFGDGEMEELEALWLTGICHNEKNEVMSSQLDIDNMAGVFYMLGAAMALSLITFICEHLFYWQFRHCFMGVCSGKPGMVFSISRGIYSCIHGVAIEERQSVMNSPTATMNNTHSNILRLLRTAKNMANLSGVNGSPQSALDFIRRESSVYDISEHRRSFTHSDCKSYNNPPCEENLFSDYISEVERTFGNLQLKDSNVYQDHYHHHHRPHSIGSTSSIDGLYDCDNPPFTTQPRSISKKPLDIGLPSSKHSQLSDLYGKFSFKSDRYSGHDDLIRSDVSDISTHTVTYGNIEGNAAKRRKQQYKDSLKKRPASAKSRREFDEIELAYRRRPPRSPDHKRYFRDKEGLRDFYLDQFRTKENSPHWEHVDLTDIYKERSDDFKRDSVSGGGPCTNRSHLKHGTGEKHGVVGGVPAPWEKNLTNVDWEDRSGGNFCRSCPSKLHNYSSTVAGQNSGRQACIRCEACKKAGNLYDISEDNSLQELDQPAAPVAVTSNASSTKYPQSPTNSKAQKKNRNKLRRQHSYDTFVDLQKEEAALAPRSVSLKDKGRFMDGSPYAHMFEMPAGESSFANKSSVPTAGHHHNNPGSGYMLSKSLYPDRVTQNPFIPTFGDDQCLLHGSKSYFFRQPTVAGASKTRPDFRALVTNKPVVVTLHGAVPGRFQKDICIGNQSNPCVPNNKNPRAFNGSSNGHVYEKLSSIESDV

NR1-R (E181Q) [9] = target: T4, NR1-R (E181Q) (Rattus norvegicus, UniProt P35439, E181Q)
NR1/NR2A receptors = NR1/NR2A receptors (Rattus norvegicus, UniProt P35439+Q00959); test: Voltage clamp recording in Xenopus oocytes expressing NR1/NR2A
Sequence of NR1/NR2A receptors (Q00959 23-1464, other chains not shown): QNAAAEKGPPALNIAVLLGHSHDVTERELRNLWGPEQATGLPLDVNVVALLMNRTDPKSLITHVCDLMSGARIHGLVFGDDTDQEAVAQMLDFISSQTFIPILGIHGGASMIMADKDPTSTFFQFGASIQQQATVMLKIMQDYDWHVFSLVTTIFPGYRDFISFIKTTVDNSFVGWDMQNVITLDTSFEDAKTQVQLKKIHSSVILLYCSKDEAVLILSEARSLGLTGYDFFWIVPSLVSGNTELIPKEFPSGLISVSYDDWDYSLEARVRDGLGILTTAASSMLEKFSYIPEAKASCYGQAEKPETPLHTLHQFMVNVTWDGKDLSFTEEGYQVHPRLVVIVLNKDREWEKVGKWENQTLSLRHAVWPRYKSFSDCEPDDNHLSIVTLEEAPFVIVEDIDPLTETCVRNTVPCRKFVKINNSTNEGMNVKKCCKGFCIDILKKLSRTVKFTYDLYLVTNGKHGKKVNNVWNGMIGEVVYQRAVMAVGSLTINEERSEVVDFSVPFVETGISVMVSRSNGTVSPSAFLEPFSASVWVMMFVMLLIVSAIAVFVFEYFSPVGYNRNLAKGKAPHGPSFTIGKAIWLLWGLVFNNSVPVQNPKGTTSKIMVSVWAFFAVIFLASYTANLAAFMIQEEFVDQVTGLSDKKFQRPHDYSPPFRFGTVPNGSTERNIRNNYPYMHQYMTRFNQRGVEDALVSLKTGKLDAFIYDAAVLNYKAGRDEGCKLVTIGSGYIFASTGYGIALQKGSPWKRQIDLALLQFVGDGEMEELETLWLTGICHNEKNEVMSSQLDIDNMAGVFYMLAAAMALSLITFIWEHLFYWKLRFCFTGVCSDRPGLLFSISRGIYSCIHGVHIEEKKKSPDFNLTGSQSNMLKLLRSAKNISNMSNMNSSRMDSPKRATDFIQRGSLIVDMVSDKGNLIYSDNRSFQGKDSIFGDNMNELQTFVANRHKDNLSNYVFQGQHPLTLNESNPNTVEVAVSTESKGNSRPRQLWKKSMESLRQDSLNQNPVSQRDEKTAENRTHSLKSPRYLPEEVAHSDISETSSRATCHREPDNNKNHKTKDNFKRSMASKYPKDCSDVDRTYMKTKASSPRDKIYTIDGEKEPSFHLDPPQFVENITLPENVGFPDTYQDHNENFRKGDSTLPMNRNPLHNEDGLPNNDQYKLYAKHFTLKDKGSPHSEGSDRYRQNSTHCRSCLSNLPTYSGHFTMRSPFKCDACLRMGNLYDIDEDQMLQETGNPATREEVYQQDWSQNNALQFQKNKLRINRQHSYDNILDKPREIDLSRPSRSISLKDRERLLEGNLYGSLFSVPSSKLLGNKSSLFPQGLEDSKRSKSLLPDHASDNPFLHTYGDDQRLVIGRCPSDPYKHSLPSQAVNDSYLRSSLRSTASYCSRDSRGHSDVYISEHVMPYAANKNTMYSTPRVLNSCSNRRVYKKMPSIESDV

NR1-R (E181Q) [10] = target: T4, NR1-R (E181Q); test: biochemical
ovalbumin = ovalbumin (Gallus gallus, UniProt P01012); settings: control, unrelated protein
Sequence of ovalbumin (P01012 whole entry, species assumed): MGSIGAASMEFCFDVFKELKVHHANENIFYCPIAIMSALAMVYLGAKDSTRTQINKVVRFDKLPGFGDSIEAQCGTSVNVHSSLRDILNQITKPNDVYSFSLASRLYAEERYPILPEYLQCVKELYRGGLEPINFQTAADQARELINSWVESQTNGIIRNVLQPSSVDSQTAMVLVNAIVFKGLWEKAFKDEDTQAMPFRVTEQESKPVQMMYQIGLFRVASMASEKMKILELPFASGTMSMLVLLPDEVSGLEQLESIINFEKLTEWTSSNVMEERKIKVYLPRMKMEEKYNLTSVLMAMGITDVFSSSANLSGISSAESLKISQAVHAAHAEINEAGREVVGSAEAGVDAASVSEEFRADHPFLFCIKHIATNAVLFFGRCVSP

NR2B-R = NR2B-R (Rattus norvegicus, UniProt P35439+Q00960); test: Circular dichroism; format: binding
Sequence of NR2B-R (Q00960 27-390, one chain of several): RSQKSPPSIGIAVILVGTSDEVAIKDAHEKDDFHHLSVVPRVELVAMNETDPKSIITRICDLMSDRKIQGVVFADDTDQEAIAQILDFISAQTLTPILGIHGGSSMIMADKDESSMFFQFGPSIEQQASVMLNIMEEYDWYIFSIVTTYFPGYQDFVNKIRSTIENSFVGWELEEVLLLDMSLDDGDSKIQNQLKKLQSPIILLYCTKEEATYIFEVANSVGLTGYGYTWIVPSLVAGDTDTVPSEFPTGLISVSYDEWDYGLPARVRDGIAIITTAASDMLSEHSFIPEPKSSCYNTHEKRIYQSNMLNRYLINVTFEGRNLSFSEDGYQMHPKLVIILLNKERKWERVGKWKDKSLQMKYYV

T1 sequence (Q00960 27-390): as the sequence (Q00960 27-390, one chain of several) above

N[C@@H](CCC(=O)O)C(=O)O [Glutamate, glutamate]
[14C]Spermine bound to NR2B-R in presence of addition, % [1]: 102% | [3H]Ifenprodil bound to NR2B-R in presence of addition, % [2]: 103%

NCC(=O)O [Glycine, glycine]
[3H]Ifenprodil bound to NR2B-R in presence of addition, % [2]: 102%

NCCCCNCCCN [Spermidine, spermidine]
[14C]Spermine bound to NR2B-R in presence of addition, % [1]: 6% | [3H]Ifenprodil bound to NR2B-R in presence of addition, % [2]: 98%

CC(C(O)c1ccc(O)cc1)N1CCC(Cc2ccccc2)CC1 (stereo not shown) [ifenprodil]
Bmax of ifenprodil binding, NR1-R [3]: 5.6 nmol/mg R domain protein | Bmax of ifenprodil binding, NR1-R, equivalent [3]: 0.24 mol/mol R domain protein | Hill coefficient for binding of ifenprodil to NR1-R [3]: ~1.0 | Specific binding of [3H]ifenprodil to NR2A-R [4]: no specific binding | IC50 (NR1/NR2B receptors [5]): 0.34 µM | [14C]Spermine bound to NR2B-R in presence of addition, % [1]: 108% | Bmax of ifenprodil binding, NR2B-R [2]: 5.2 nmol/mg R domain protein | Bmax of ifenprodil binding, NR2B-R, equivalent [2]: 0.21 mol/mol R domain protein | Hill coefficient for binding of ifenprodil to NR2B-R [2]: ~1.0 | [3H]Ifenprodil bound to NR2B-R in presence of addition, % [2]: 15% | Change in the CD spectra of NR2A-R (NR2A-R; 2 µM ifenprodil): no change

NC[C@@H]1O[C@H](O[C@H]2[C@@H](O)[C@H](O[C@@H]3[C@@H](O)[C@H](N)C[C@H](N)[C@H]3O[C@H]3O[C@H](CN)[C@@H](O)[C@H](O)[C@H]3N)O[C@@H]2CO)[C@H](N)[C@@H](O)[C@@H]1O [neomycin B]
Effect of aminoglycoside on spermine binding to NR2B-R [1]: inhibited | Effect of aminoglycoside on spermine binding to NR2A-R [6]: inhibited | Effect of aminoglycoside on spermine binding to NR1-R [7]: inhibited

NC[C@@H]1O[C@H](O[C@H]2[C@@H](O)[C@H](O[C@@H]3[C@@H](O)[C@H](N)C[C@H](N)[C@H]3O[C@H]3O[C@H](CO)[C@@H](O)[C@H](O)[C@H]3N)O[C@@H]2CO)[C@H](N)[C@@H](O)[C@@H]1O [paromomycin]
Effect of aminoglycoside on spermine binding to NR2B-R [1]: inhibited | Effect of aminoglycoside on spermine binding to NR2A-R [6]: inhibited | Effect of aminoglycoside on spermine binding to NR1-R [7]: inhibited

NCCCNCCCCNCCCN [spermine]
Kd (NR1-R): 20 µM | EC50 (NR1/NR2B receptors [8]): 78 µM | Hill coefficient for spermine at NR1/NR2B (NR1/NR2B receptors [8]; oocytes, −20 mV): 1.05 | Bmax of spermine binding, NR2B-R, equivalent [1]: 0.32 mol/mol R domain | Hill coefficient for spermine binding to NR2B-R [1]: close to unity | [14C]Spermine bound to NR2B-R in presence of addition, % [1]: 7% | Kd ([1]; Kd of spermine at NR2B-R calculated from k1 and k−1, from rate constants): 25.9 µM | Bmax of spermine binding, NR2B-R ([1]; Scatchard plot): 7.3 nmol/mg R domain protein | Dissociation rate constant k−1 of [14C]spermine at NR2B-R ([1]; after addition of nonlabeled 3 mM spermine): 0.22 min⁻¹ | Association rate constant k1 of [14C]spermine at NR2B-R ([1]; average at 12.5, 25 and 50 µM [14C]spermine): 8,500 M^−1·min^−1 | Binding of spermine to E181Q mutant compared to wild-type NR1-R (NR1-R (E181Q) [9]): reduced | EC50 (NR1/NR2A receptors): 278 µM | Hill coefficient for spermine at NR1/NR2A (NR1/NR2A receptors; oocytes, −20 mV): 1.17 | Kd (NR1-R (E181Q) [10]): 74 µM | Binding of spermine to ovalbumin (ovalbumin): little binding | [3H]Ifenprodil bound to NR2B-R in presence of addition, % [2]: 99% | Kd (NR2B-R): 35 µM | Bmax of spermine binding, NR2A-R, equivalent [6]: 0.29 mol/mol R domain | Hill coefficient for spermine binding to NR2A-R [6]: close to unity | Kd [6]: 140 µM | Bmax of spermine binding, NR2A-R ([6]; Scatchard plot): 6.9 nmol/mg R domain protein | Affinity for spermine lower at NR2A R domain compared to NR2B R domain ([6]; ratio of Kd): 4 fold | Bmax of spermine binding, NR1-R, equivalent [7]: 0.24 mol/mol R domain | Hill coefficient for spermine binding to NR1-R [7]: close to unity | Kd [7]: 19 µM | Bmax of spermine binding, NR1-R ([7]; Scatchard plot): 6.3 nmol/mg R domain protein | Kd (NR2A-R): 133 µM

[H]/N=C(/N)N[C@H]1[C@H](O)[C@@H](O)[C@H](O[C@@H]2O[C@@H](C)[C@](O)(C=O)[C@H]2O[C@@H]2O[C@@H](CO)[C@H](O)[C@@H](O)[C@@H]2NC)[C@@H](N/C(N)=N\[H])[C@@H]1O [streptomycin]
Effect of aminoglycoside on spermine binding to NR2B-R [1]: inhibited | Effect of aminoglycoside on spermine binding to NR2A-R [6]: inhibited | Effect of aminoglycoside on spermine binding to NR1-R [7]: inhibited

kanamycin A
Effect of aminoglycoside on spermine binding to NR2B-R [1]: inhibited | Effect of aminoglycoside on spermine binding to NR2A-R [6]: inhibited | Effect of aminoglycoside on spermine binding to NR1-R [7]: inhibited
